This is an account of results in patent publication US10287294B2, “Compounds for use in treating or preventing cancerous diseases” (BIOMEDICAL RESEARCH FOUNDATION OF THE ACADEMY OF ATHENS, priority 2015, dated 2019).

Data set [1] has as its system human prostate cancer xenografts. The settings on record: two weeks in vivo treatment with 20 or 30 mg/kg; cited from earlier work.
Data set [2] deals with pancreatic ductal adenocarcinoma (PDA). Briefly: Micro PET/CT imaging of Pdx1-Cre/KRAS*A mouse treated with Amy22. Type of data set: in vivo. On the procedure:
PET/CT images were acquired of a Pdx1-Cre/KRAS*A mouse at the beginning and end of treatment (one month) of pancreatic ductal adenocarcinoma (PDA) with the Amy22 compound (cf. FIG. 4; a representative out of three independent experiments is shown). Dosing solutions of 20 mg/ml Amy22 in 0.5% carboxymethyl cellulose (CMC) were used for daily administration per os (0.15 ml per animal, dose 150 mg/kg) for 30 days. The diminished uptake of ^18F-FDG by remnants of PDA is evident and measured by the standardized uptake values (SUV values) that were 2.87 at the beginning and 1.5 at the end of the treatment. The white arrows indicate the anatomical sites of pancreata. High-level concentration of ^18F-FDG in the urinary bladder (excretion of the tracer) and also in the heart (yellow arrows) is noted.

The test system of data set [3] is human pancreatic ductal adenocarcinoma cell line MiaPaCa2 xenografts. Briefly: Amy22 treatment of MiaPaCa2 xenografts in NOD/SCID mice. Type of data set: in vivo. As to conditions: Amy22 150 mg/kg for two weeks. Here is the method: For transplantation, eight-week old NOD/SCID mice were anesthetized using a steady flow of a mixture of isofluorane gas (4%) and oxygen and inoculated subcutaneously into their lateral flanks with 10^6 cancer cells and monitored daily until the tumors became palpable (tumor volume ˜100 mm^3). The mice were then divided randomly into two groups for Amy22 (150 mg/kg) or vehicle administration for a period of two weeks. Average weights±S.E.M (n=4 in each case) are indicated (p<0.001 and <0.05 for MiaPaCa2 and MMTV-Myc, respectively). […] FIG. 3 illustrates the gross appearance of surgically recovered Amy22-treated or untreated (control) xenografts.

In a further data set the test system is TGR-1 cells. The data set is described as follows: MTT cell viability assay, TGR-1 cells (Myc+/+). Type of data set: cell-based. The settings on record: Rattus norvegicus, TGR1, 72 h; for IC50: Myc+/+ cells, MTT day 3, logit-log linear regression. The source says:
(§1) To evaluate the in vitro activity of the compound having the formula (II) (Amy22), the sibling cell lines TGR-1 and H015.19 were used. The TGR-1 cells are a subclone of the Rat-1 fibroblastic cell line with intact Myc (Myc^+/+), whereas the H015.19 cells are Myc^−/− derivatives of the TGR-1 cells (Mateyak et al., 1997). The two sibling cell lines thus differ only in the presence or absence of Myc, thereby allowing to determine not only the activity of the tested compound in Myc-positive cancer cells, but also in cells not expressing Myc offering an indication of the specificity of the tested compound.
(§2) The TGR-1 and H015.19 cells were grown in DMEM supplemented with 10% FBS. Equal numbers of cells were seeded in multiple wells of 24-well plates at low density (<20% confluence at day 0), and either DMSO or DMSO-dissolved Amy22 (various concentrations) was added to the medium (final concentration of DMSO: 0.1%). Cell viability (sextuplicates) was measured on day 3 by using a standard MTT (Thiazolyl Blue Tetrazolium Bromide) colorimetric assay (Mosmann, 1983). Half-maximal inhibitory concentrations (IC50) were determined using a log it-log plot and linear regression of the data (SigmaPlot software; Systat Software, Inc., San Jose, Calif., USA), as shown in FIG. 1 and Table 1. The measured data were plotted on the log it-log plot for linear regression of cell viability data (average values from 5 independent experiments in each case), in order to calculate the Amy22 IC50 for the sibling cell lines that differ only in the presence or absence of Myc (TGR-1 and H015.19 cells, respectively). The IC50 for H015.19 cells was calculated by extrapolation.
A general note: Tetrazolium dyes change colour on reduction, which living cells bring about.

Data set [4] is described as follows: Blood concentrations of Amy22 after oral gavage to mice (LC-MS/MS, non-compartmental analysis). Type of data set: in vivo, mouse. On the procedure: Animals at the age of 10 weeks were fasted overnight and weighed before dosing (average weight=21.6 g, n=6 male C57BL/6N). Dosing solutions of 20 mg/ml Amy22 in 0.5% carboxymethyl cellulose (CMC) were used for administration per os (0.15 ml per animal, dose 140 mg/kg). A serial tail bleeding protocol was used for the collection of blood samples. Blood samples (10 μl) were collected at selected time points (0.5, 1, 2, 4, 8, 24 hours) in tubes containing 40 μl sodium citrate (0.1 M, pH 4.5) and stored at −80° C. until sample extraction. Samples were prepared for quantification by protein precipitation and evaporation. Amy22 was quantified by LC-MS/MS analysis.
Pharmacokinetic Parameters Using Non-Compartmental Analysis

Data set [5] in a line: MTT cell viability assay, H015.19 cells (Myc-/-). Type of data set: cell-based, rat. The settings on record: rat, H015.19 cells (Myc-/- derivatives of TGR-1), day 3, MTT, average ± S.E.M.
From the text: as §1, §2

A further data set deals with H015.19 cells. Briefly: MTT cell viability assay, H015.19 cells (Myc-/-). As to conditions: Rattus norvegicus, 72 h, Myc-/- cells. Type of data set: cell-based, rat.
From the text: as §1, §2

Data set [6] relates to pancreatic ductal adenocarcinoma (PDA). The data set is described as follows: Post-mortem gamma counting of 18F-FDG uptake in Pdx1-Cre/KRAS*A mice after monotherapy or combination with Amy22. It is filed as in vivo, mouse. The settings on record: one month; Gemcitabine 300 mg/kg IP weekly; in combination Amy22 150 mg/kg per os daily.
Procedure: The representative PET/CT images shown were acquired for Pdx1-Cre/KRAS*A mice at the beginning and end of treatment (one month) of pancreatic ductal adenocarcinoma (PDA) using either Gemcitabine alone or a combination of Gemcitabine and Amy22. The scheme used for the treatment was as follows: weekly IP administration of Gemcitabine (300 mg/kg) in both cases and daily administration of AMY22 per os (150 mg/kg) in the combination treatment (cf. FIG. 5).
In some scans, a high-level concentration of ^18F-FDG in the urinary bladder (excretion of the tracer) could be observed. High uptake of radioactivity (unrelated to the presence of tumor) was also noted in the heart.
Setting [7] is: mouse, whole blood, po, blood, male C57BL/6N mice, 140 mg/kg per os in 0.5% CMC.
The mark [8] stands for this setting: MTT day 3, logit-log linear regression.

Where only a bound is given, the exact number is not on record here.

For the molecule `CCc1ccc(C=C2SC(=S)NC2=O)cc1` [10058-F4, [Z,E]-5-[4-ethylbenzylidine]-2-thioxothiazolidin-4-one], the “inhibition of tumor growth” value in data set [1] is “no significant inhibition of tumor growth”.
As usually defined, the viability is a read-out of living cells in per cent, often relative to untreated cells. In general, IC50 refers to the concentration needed to halve the response being measured. For orientation: AUC(0-inf) means total exposure, with the tail of the curve extrapolated. For orientation: Cmax means the highest concentration seen after dosing. The Tmax is the time at which the peak concentration occurs. As for `O=C(Nc1c(C(=O)O)cnn1-c1ccccc1)c1cc2nc(-c3ccco3)cc(C(F)(F)Cl)n2n1` [Amy22], the “survival and condition of treated mice” value in data set [2] (after 150 mg/kg per os daily for 30 days) is reported as “still alive 3 months post-treatment with no evident signs of cachexia”. Besides, the “standardized uptake value (SUV) of 18F-FDG” value in data set [2] (at the beginning of treatment) is reported as 2.87. The “standardized uptake value (SUV) of 18F-FDG” value in data set [2] (at the end of treatment, 150 mg/kg per os daily for 30 days) was 1.5. In addition, in data set [3], the apoptosis in xenografts entry is on record as “induced apoptosis”. In addition, the “proliferation index (Ki67 immunohistochemistry)” value in data set [3] (MiaPaCa2 xenografts, controls 69.9±5.1%) is given as 15.0±3.3%. Besides, the viability at 0.1 µM with TGR-1 cells (Amy22 0.1 μM, day 3, MTT, average ± S.E.M) was 84.4 ± 5%. Further, the viability at 0.5 µM with TGR-1 cells (Amy22 0.5 μM, day 3, MTT, average ± S.E.M) is 73.7 ± 4%. The same molecule registered a viability at 1 µM in the data set on TGR-1 cells (Amy22 1 μM, day 3, MTT, average ± S.E.M) of 67.3 ± 4.1%. For the same molecule, the viability at 5 µM with TGR-1 cells (Amy22 5 μM, day 3, MTT, average ± S.E.M) is 54.5 ± 4.6%. For the same molecule, the viability at 10 µM in the data set on TGR-1 cells (Amy22 10 μM, day 3, MTT, average ± S.E.M) was determined as 46 ± 2.5%. Besides, the viability at 25 µM in the data set with TGR-1 cells (Amy22 25 μM, day 3, MTT, average ± S.E.M) came out at 39.9 ± 2.2%. In the data set with TGR-1 cells (Amy22 50 μM, day 3, MTT, average ± S.E.M), this molecule returned a viability at 50 µM of 26.8 ± 4.8%. The viability at 100 µM in the data set on TGR-1 cells (Amy22 100 μM, day 3, MTT, average ± S.E.M) was 19 ± 3.7%. The molecule also yielded an IC50 in the data set on TGR-1 cells of 5.8 µM. Also, in data set [4] (blood, male C57BL/6N mice, 140 mg/kg per os in 0.5% CMC), the “Elimination rate constant (ke)” value is 0.2 ± 0.1 h⁻¹. In data set [4] (setting [7]), the AUC(0-inf) worked out at 35.4 ± 9.5 µM·h, the Cmax was found to be 6.2 ± 1.1 µM and the time to peak (Tmax) amounted to 1.5 ± 0.5 h. Moreover, the AUC(0-t) in data set [4] (mouse, whole blood, po, blood, male C57BL/6N mice, 140 mg/kg per os in 0.5% CMC, read-out: AUC0-24) amounted to 33.6 ± 8.3 µM·h. In addition, the blood concentrations in data set [4] (up to at least 8 hr post dose, oral 140 mg/kg) is reported as more than 1 micro molar. The same molecule displayed a viability at 3 days, 0.1 μM in data set [5] (Amy22 0.1 μM) of 86.3 ± 5.9%. Further, the viability at 3 days, 0.5 μM in data set [5] (Amy22 0.5 μM) was determined as 84.7 ± 5.7%. The molecule further showed a viability at 3 days, 1 μM in data set [5] (Amy22 1 μM) of 80 ± 4.1%. Also, the viability at 3 days, 5 μM in data set [5] (Amy22 5 μM) came out at 75.3 ± 8.8%. In data set [5] (Amy22 10 μM), this molecule gave a viability at 3 days, 10 μM of 74.6 ± 4.9%. The molecule also displayed a viability at 3 days, 25 μM in data set [5] (Amy22 25 μM) of 70.8 ± 5.1%. Also, in data set [5] (Amy22 50 μM), the viability at 3 days, 50 μM stood at 67.8 ± 4%. Moreover, the viability at 3 days, 100 μM in data set [5] (Amy22 100 μM) was determined as 61.1 ± 3.8%. In addition, the IC50 in the data set on H015.19 cells (MTT day 3, calculated by extrapolation) is 1800 µM.
For `Nc1ccn([C@@H]2O[C@H](CO)[C@@H](O)C2(F)F)c(=O)n1` [Gemcitabine], in data set [6], the “remaining tumor as % of untreated PDA tumors (18F-FDG uptake, gamma counting post-mortem)” value amounted to 31%.
With `O=C(Nc1ccc(F)cc1)c1cc2nc(-c3ccco3)cc(C(F)(F)Cl)n2n1` [formula (III), reference compound], the concentration for half-maximal inhibition (IC50) in the data set with TGR-1 cells was determined as 6.5 µM; in the data set with H015.19 cells (setting [8]), 13.4 µM.
In the same order, the values of `O=C(c1cc2nc(-c3ccco3)cc(C(F)(F)Cl)n2n1)N1CCNCC1` [formula (IV), reference compound] are 12.3 µM and 58.8 µM.
